Experiment [1] deals with biofilms of Pseudomonas aeruginosa (ATCC 15442). Put plainly: MBEC (minimum biofilm eradication concentration) test, 96-peg Calgary biofilm device. It is filed as cell-based.
Experiment [2] concerns 21-day old biofilms. As to conditions: 1 mg/L free residual; 30° C.; cited from earlier work.
Experiment [3] has as its system Legionella pneumophila. As to conditions: 1 mg/L for 24 hours; either metal surface; cited from earlier work.
Experiment [4] deals with biofilm bacteria. As to conditions: 1 ppm residuals; cited from earlier work.
The subject of experiment [5] is biofilms consisting of a consortium of Legionella, heterotrophic bacteria and amoebae. As to conditions: cited from earlier work.
Experiment [6] has as its system biofilms of Sphaerotilus natans. As to conditions: dynamic tests; maximum applied dose 20 ppm; cited from earlier work.
The test system of experiment [7] is biofilm bacteria. As to conditions: 1.5 mg/L applied continuously for 18 hours; cited from earlier work.
Experiment [8] concerns HPC Bacteria (planktonic and biofilm). As to the kind of experiment: Laboratory model water system, 48-hour biocide challenge and 14-day recovery: HPC bacteria. It is filed as cell-based.
Experiment [9] deals with biofilm-associated Legionella. As to conditions: cited from earlier work.
Experiment [10] concerns 3-day biofilms. As to conditions: cited from earlier work.
Experiment [11] relates to sessile bacteria. As to conditions: pH 9; cited from earlier work.
For experiment [12], the system named is biofilm bacteria. As to conditions: cited from earlier work.
[13] abbreviates: 7-day biofilm, one hour contact time, average, halogen biocides as Cl2.
Where [14] appears, read: maximum log reduction, typically 2-12 hours after biocide application.
[15] abbreviates: relative to control after the 14-day recovery period.
Setting [16] is: 1-day biofilm, one hour contact time, average, halogen biocides as Cl2, others as active ingredient.
The mark [17] stands for this setting: 1-day biofilm, one hour contact time, individual determinations, halogen biocides as Cl2, others as active ingredient.

The text below walks through data of patent publication US20090178587A9, “Control of biofilms in industrial water systems” (priority 2001, published 2009).

Molecules are shown by their SMILES. “And” between values parts separate entries of the source, which are not always exact repeats. Equal entries are not always repeated. Where two headings read alike, the source gives them in different places. Bounds are passed on as bounds.

For the compound `CC1(C)C(=O)N(Cl)C(=O)N1Br` [BCDMH, 1-bromo-3-chloro-5,5-dimethylhydantoin], in [1], the “1-Day Biofilm MBEC, avg.” value came to 2.5 ppm; the “1-Day Biofilm MBEC, ppm” value was 2.5, 2.5 ppm; the “7-Day Biofilm MBEC, ppm” value is 5, 10 ppm. Also, the “7-Day Biofilm MBEC, avg.” value in experiment [1] (setting [13]) was determined as 7.5 ppm. Besides, in experiment [2], the “reduction of biofilm counts on mild steel” value is 1.4 logs and the “reduction of biofilm counts on stainless steel” value was 2.0 logs. In addition, the “viable Legionella recovered from the biofilms” value in experiment [3] was “no viable Legionella were recovered”. Moreover, the “log kill of biofilm bacteria” value in experiment [4] was 1 log. Also, in [5], the “efficacy against biofilm-associated heterotrophic bacteria and Legionella” value is on record as “also effective but was slower acting”.
Consider `[Na+].[O-]Cl` [Bleach, NaOCl], for which, in experiment [1], the “1-Day Biofilm MBEC, avg.” value came to 3.8 ppm; the “1-Day Biofilm MBEC, ppm” value is listed as 5.0, 2.5 ppm; the “7-Day Biofilm MBEC, avg.” value was 20 ppm; the “7-Day Biofilm MBEC, ppm” value is recorded as 20, 20 ppm.
On to `CCC1(C)C(=O)N(Cl)C(=O)N1Br` (centres unmarked) [BrMEH, bromo-chloro-methylethylhydantoin], for which the “treatment level for biofilm control (but not eradication)” value (shortened to “treatment level … (but not eradication)”) in experiment [6] is on record as 10 ppm. In [4], the “log kill of biofilm bacteria” value was 0.7 log.
Take `[O][Cl+][O-]` [ClO2, Chlorine dioxide]: in [7], the “reduction of biofilm bacteria” value was 99.4%.
On to `CC1(C)C(=O)N(Br)C(=O)N1Br` [DBDMH, 1-3-dibromo-5,5-dimethylhydantoin], for which, in experiment [1], the “1-Day Biofilm MBEC, avg.” value was 1.2 ppm; the “1-Day Biofilm MBEC, ppm” value turned out to be 1.2 ppm; the “7-Day Biofilm MBEC, avg.” value amounted to 5 ppm; the “7-Day Biofilm MBEC, ppm” value was 5, 5 ppm. Further, in experiment [1], the MBEC is recorded as 1.4 mg/L. Also, in [8] (setting [14]), the “Log Reduction, HPC Bacteria, Biofilm” value is reported as 2.7 log and the “Log Reduction, HPC Bacteria, Planktonic” value is 3.6 log. In experiment [8] (setting [15]), the “Log Reduction, HPC Bacteria, Biofilm” value came out at 0.4 log and the “Log Reduction, HPC Bacteria, Planktonic” value is reported as 0.2 log.
With `N#CC(Br)(Br)C(N)=O` [DBNPA, Dibromonitrilopropionamide], the “1-Day Biofilm MBEC, avg.” value in experiment [1] (setting [16]) came to 3.1 ppm. The “1-Day Biofilm MBEC, ppm” value in experiment [1] (setting [17]) is 2.0 ppm and 4.1 ppm. Moreover, the “effect on levels of biofilm-associated Legionella” value (“effect on levels” for short) in [9] is reported as “non detectable levels”.
With `CCCCCCCCCCSCCN.Cl` [DTEA, decylthioethaneamine hydrochloride], in experiment [1] (setting [16]), the “1-Day Biofilm MBEC, avg.” value is reported as 100 ppm. In addition, in experiment [1] (setting [17]), the “1-Day Biofilm MBEC, ppm” value is listed as 100, 100 ppm.
Turning to `O=CCCCC=O` [Glutaraldehyde, glutaraldehyde], the “1-Day Biofilm MBEC, avg.” value in [1] (setting [16]) is given as 50 ppm. Moreover, the “1-Day Biofilm MBEC, ppm” value in experiment [1] (setting [17]) is given as 50, 50 ppm. The “7-Day Biofilm MBEC, avg.” value in experiment [1] (setting [13]) is ~200 ppm. In addition, the “7-Day Biofilm MBEC, ppm” value in [1] (7-day biofilm, one hour contact time, individual determinations, halogen biocides as Cl2) is 100 ppm and > 200 ppm. Also, in experiment [10], the “"no effect" level on biofilm removal” value is recorded as 20 ppm. For the same compound, the “log reductions in sessile bacteria / biofilm counts” value in experiment [11] is reported as 2 log. In addition, the “effect on levels” value in experiment [9] is “non detectable levels”. Also, the “efficacy against biofilm-associated heterotrophic bacteria and Legionella” value in experiment [5] is “effective”.
Turning to `OO` [H2O2, hydrogen peroxide], in [1], the “1-Day Biofilm MBEC, avg.” value is given as >200 ppm and the “1-Day Biofilm MBEC, ppm” value is given as >100, >100 ppm. The “log reductions in sessile bacteria / biofilm counts” value in [11] is 2 log.
Regarding `OBr` [HOBr, hypobromous acid], the “treatment level … (but not eradication)” value in [6] is 15 ppm.
On to `OCl` [HOCl, Hypochlorous acid], for which the “treatment level … (but not eradication)” value in experiment [6] is on record as > 20 ppm.
For `CC(=O)OO` [Peracetic Acid, peracetic acid], the “1-Day Biofilm MBEC, avg.” value in [1] (1-day biofilm, four-hour contact time, average (est.)) was ~150 ppm. Also, the “1-Day Biofilm MBEC, ppm” value in experiment [1] (1-day biofilm, four-hour contact time, individual determinations, active ingredient) is recorded as 100, >100 ppm.
`O=S(=O)([O-])[O-].OC[P+](CO)(CO)CO.OC[P+](CO)(CO)CO` [THPS]: the “log reductions in sessile bacteria / biofilm counts” value in experiment [11] is on record as 2 log.
`O=c1n(Cl)c(=O)n(Cl)c(=O)n1Cl` [Trichlor, 1,3,5-trichloroisocyanuric acid]: in experiment [1], the “1-Day Biofilm MBEC, avg.” value was determined as 1.9 ppm; the “1-Day Biofilm MBEC, ppm” value is reported as 2.5, 1.2 ppm; the “7-Day Biofilm MBEC, avg.” value is recorded as 20 ppm; the “7-Day Biofilm MBEC, ppm” value is on record as 20, 20 ppm.
Regarding `BrBr` [bromine], the “log reductions of biofilm bacteria” value in [12] is given as ~3 log. Moreover, the “effect on levels” value in [9] was “non detectable levels”.
Take `O=[O+][O-]` [ozone]: in [9], the “effect on levels” value is reported as “did not appear to significantly affect”.
